Measured values: ChEMBL document CHEMBL4325932, “Adaptable Small Ligand of CYP1 Enzymes for Use in Understanding the Structural Features Determining Isoform Selectivity” (ACS Med Chem Lett, 2018)

Legend:
Assay type in all cases: cell membranes
Cytochrome P450 1A1 = target: T1, Cytochrome P450 1A1 (Homo sapiens, UniProt P04798); assay: Inhibition of recombinant human CYP1A1 expressed in Escherichia coli membranes co-expressing NADPH-P450 reductase assessed as reduction in ethoxyresorufin O-de-ethylation preincubated for 3 mins followed by NADPH addition and measured after 10 mins by fluorometric method
T1 sequence (P04798 whole entry): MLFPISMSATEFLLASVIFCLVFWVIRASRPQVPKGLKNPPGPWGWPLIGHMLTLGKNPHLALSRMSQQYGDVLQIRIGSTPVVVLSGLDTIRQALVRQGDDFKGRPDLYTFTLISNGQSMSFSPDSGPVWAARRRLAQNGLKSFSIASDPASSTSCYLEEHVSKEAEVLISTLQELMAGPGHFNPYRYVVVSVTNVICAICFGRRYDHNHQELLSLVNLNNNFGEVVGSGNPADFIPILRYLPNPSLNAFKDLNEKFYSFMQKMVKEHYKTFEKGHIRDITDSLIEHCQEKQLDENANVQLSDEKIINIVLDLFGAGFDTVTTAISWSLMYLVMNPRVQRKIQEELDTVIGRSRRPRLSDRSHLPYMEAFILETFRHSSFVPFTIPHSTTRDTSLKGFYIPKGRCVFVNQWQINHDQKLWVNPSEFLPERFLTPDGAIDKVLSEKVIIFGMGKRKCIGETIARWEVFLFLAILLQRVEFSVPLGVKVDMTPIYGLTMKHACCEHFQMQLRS

Cytochrome P450 1A2 = target: T2, Cytochrome P450 1A2 (Homo sapiens, UniProt P05177); assay: Inhibition of recombinant human CYP1A2 expressed in Escherichia coli membranes co-expressing NADPH-P450 reductase assessed as reduction in ethoxyresorufin O-de-ethylation preincubated for 3 mins followed by NADPH addition and measured after 10 mins by fluorometric method
T2 sequence (P05177 whole entry): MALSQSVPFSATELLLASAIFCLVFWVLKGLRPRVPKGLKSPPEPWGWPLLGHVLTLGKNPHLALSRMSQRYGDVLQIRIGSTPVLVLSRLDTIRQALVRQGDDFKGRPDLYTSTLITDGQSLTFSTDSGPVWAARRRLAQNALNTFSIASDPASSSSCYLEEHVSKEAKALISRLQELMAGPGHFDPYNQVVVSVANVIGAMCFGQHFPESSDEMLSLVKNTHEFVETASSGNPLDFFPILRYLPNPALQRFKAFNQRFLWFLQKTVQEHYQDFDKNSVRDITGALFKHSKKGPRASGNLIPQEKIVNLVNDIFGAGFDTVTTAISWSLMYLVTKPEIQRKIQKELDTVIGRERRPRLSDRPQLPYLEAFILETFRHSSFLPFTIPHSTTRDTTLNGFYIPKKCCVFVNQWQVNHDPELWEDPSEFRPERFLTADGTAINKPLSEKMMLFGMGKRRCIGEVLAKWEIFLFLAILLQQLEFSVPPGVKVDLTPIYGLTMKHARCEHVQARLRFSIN

Cytochrome P450 1B1 = target: T3, Cytochrome P450 1B1 (Homo sapiens, UniProt Q16678); assay: Inhibition of recombinant human CYP1B1 expressed in Escherichia coli membranes co-expressing NADPH-P450 reductase assessed as reduction in ethoxyresorufin O-de-ethylation preincubated for 3 mins followed by NADPH addition and measured after 10 mins by fluorometric method
T3 sequence (Q16678 whole entry): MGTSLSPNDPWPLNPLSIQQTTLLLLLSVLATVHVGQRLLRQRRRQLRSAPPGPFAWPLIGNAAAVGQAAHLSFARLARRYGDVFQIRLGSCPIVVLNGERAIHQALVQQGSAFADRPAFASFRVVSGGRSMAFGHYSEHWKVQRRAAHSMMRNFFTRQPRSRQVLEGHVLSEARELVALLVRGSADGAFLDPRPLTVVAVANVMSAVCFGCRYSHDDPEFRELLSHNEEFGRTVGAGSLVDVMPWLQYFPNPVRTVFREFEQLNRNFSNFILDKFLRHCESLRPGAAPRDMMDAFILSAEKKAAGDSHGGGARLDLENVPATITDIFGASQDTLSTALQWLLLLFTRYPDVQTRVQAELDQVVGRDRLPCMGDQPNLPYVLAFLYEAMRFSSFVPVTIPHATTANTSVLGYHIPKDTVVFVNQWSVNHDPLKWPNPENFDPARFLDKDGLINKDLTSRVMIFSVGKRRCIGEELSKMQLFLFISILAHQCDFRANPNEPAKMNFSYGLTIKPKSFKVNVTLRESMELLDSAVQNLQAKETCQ

Homo sapiens [1] = species on record: Homo sapiens; assay: Selectivity ratio of IC50 for recombinant human CYP1A1 expressed in Escherichia coli membranes to IC50 for recombinant human CYP1B1 expressed in Escherichia coli membranes
Homo sapiens [2] = species on record: Homo sapiens; assay: Selectivity ratio of IC50 for recombinant human CYP1A1 expressed in Escherichia coli membranes to IC50 for recombinant human CYP1A2 expressed in Escherichia coli membranes
Homo sapiens [3] = species on record: Homo sapiens; assay: Selectivity ratio of IC50 for recombinant human CYP1A2 expressed in Escherichia coli membranes to IC50 for recombinant human CYP1B1 expressed in Escherichia coli membranes

IC50 (Cytochrome P450 1A1) [nM] | IC50 (Cytochrome P450 1A2) [nM] | IC50 (Cytochrome P450 1B1) [nM] | Ratio IC50 (Homo sapiens [1]) | Ratio IC50 (Homo sapiens [2]) | Ratio IC50 (Homo sapiens [3]) | SMILES
41 | 1.5 | 4 | 10.3 | 27.3 | 0.4 | COc1cc(/C=C/c2cccs2)cc(OCCn2ccnc2)c1
55 | – | – | – | – | – | O=c1cc(-c2ccccc2)oc2c1ccc1ccccc12 [ALPHA-NAPHTHOFLAVONE]
– | – | – | 30.5 | 5.5 | 5.5 | COc1cc(/C=C/c2cccs2)cc(OC)c1
